Usually IC50 stands for the midpoint of a concentration-inhibition curve.

One experiment concerns the target Human mTOR (FLAG-TOR) (Homo sapiens, UniProt P42345). The experiment in a line: mTOR kinase assay (DELFIA format, purified enzyme). Type of experiment: biochemical. The conditions noted are these: read-out: IC50 mTOR.
Experiment [1] has as its system human prostate PC3-mm2 tumor cell line. Put plainly: In vitro cell culture growth assay (MTS), PC3-mm2. The format is cell-based. The conditions noted are these: Homo sapiens, PC3MM2, 72 h.
The target in another experiment is PI3K-α (Homo sapiens, UniProt P42336). Put plainly: PI3K-alpha fluorescence polarization assay. Particulars: read-out: IC50 PI3Kα. A general note: Fluorescence polarisation rises when a labelled molecule tumbles more slowly, as on binding a larger partner.
Another experiment concerns the target PI3K-γ (Homo sapiens, UniProt P48736). The experiment in a line: PI3K-gamma fluorescence polarization assay. The conditions noted are these: read-out: IC50 PI3Kγ.
[2] abbreviates: MTS cell growth assay, three days after drug treatment, read-out: IC50 PC3-mm2.
Setting [3] is: MTS cell growth assay, three days after drug treatment, PC3-mm2 cells, read-out: IC50 PC3-mm2.

Several values for one entry are separate records, joined by “and”; a condition that tells them apart may be missing. Equal entries are not always repeated. Where two headings read alike, the source gives them in different places.

Sequence of PI3K-γ (P48736 whole entry, species assumed): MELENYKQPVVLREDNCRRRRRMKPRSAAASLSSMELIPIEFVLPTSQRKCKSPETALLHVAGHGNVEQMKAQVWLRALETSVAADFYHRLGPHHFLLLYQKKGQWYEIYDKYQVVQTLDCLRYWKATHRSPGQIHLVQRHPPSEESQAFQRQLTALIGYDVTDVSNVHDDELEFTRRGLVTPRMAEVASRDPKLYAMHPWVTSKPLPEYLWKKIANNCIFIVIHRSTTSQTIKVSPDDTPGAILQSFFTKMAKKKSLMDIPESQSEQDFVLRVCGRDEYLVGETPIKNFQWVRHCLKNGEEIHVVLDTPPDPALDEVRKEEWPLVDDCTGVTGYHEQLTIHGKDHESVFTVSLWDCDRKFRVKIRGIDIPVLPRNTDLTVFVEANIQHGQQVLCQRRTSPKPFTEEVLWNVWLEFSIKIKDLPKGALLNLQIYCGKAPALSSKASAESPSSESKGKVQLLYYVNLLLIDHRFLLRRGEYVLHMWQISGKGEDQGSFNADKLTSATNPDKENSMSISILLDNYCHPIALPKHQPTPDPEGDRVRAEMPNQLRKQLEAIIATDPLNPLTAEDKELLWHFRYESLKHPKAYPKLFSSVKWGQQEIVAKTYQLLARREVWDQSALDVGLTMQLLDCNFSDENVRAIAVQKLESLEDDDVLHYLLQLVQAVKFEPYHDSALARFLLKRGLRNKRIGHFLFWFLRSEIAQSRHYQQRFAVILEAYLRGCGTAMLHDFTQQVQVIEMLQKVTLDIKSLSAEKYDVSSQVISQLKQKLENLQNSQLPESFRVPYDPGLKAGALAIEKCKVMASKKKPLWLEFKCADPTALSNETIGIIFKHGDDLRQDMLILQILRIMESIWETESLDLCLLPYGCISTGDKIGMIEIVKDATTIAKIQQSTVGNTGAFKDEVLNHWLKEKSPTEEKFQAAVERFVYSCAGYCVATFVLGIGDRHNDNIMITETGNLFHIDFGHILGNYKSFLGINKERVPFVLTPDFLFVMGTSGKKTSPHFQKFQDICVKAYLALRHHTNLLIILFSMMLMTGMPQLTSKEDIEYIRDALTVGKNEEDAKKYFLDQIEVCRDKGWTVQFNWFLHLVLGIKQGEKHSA
Sequence of PI3K-α (P42336 whole entry, species assumed): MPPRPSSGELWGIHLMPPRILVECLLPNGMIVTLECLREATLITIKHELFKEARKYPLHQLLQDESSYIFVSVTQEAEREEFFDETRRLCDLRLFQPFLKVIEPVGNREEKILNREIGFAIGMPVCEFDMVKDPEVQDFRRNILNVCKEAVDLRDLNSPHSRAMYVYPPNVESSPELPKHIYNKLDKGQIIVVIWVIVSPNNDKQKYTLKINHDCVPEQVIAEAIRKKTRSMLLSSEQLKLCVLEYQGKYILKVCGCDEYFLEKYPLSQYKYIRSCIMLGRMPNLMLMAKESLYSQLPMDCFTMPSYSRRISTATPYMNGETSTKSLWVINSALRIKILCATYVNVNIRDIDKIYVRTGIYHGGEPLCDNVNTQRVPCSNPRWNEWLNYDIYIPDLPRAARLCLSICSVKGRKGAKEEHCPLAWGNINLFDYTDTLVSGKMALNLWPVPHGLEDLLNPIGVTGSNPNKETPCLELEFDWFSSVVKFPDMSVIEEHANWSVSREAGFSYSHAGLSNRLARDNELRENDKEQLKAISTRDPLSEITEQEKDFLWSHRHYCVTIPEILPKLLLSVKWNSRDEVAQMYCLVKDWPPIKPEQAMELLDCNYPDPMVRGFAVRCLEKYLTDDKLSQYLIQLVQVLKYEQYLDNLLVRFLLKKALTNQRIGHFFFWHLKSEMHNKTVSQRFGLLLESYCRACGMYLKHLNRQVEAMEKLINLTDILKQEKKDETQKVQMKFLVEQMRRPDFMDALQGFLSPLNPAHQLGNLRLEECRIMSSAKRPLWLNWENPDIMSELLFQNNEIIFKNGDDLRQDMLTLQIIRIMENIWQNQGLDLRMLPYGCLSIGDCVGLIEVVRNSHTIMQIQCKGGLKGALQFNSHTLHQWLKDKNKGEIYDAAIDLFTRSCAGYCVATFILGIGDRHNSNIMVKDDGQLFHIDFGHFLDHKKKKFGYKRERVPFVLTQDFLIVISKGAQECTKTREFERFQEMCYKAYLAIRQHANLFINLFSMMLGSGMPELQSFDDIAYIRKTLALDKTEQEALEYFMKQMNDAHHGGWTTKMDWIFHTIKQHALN
Sequence of PI3K-α (P27986 whole entry partner, species assumed): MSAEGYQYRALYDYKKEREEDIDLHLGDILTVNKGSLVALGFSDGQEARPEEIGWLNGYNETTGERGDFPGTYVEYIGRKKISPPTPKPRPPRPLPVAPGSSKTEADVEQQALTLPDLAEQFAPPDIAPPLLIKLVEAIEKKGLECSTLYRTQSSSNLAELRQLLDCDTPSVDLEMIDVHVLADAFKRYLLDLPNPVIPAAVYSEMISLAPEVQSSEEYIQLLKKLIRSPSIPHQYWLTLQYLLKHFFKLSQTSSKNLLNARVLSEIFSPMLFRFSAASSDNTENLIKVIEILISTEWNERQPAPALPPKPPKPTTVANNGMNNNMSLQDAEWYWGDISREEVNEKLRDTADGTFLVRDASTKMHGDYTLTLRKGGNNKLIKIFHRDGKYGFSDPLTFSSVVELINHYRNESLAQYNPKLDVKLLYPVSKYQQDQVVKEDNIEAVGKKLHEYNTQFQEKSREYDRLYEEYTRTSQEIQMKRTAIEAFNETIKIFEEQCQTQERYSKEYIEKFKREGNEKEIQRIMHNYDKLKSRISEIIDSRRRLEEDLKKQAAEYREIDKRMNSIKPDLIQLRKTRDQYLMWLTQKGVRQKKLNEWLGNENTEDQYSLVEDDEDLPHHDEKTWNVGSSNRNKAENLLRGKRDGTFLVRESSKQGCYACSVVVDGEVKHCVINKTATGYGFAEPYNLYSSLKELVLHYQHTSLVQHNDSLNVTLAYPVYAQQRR
Sequence of Human mTOR (FLAG-TOR) (P42345 1360-2549 limits assumed): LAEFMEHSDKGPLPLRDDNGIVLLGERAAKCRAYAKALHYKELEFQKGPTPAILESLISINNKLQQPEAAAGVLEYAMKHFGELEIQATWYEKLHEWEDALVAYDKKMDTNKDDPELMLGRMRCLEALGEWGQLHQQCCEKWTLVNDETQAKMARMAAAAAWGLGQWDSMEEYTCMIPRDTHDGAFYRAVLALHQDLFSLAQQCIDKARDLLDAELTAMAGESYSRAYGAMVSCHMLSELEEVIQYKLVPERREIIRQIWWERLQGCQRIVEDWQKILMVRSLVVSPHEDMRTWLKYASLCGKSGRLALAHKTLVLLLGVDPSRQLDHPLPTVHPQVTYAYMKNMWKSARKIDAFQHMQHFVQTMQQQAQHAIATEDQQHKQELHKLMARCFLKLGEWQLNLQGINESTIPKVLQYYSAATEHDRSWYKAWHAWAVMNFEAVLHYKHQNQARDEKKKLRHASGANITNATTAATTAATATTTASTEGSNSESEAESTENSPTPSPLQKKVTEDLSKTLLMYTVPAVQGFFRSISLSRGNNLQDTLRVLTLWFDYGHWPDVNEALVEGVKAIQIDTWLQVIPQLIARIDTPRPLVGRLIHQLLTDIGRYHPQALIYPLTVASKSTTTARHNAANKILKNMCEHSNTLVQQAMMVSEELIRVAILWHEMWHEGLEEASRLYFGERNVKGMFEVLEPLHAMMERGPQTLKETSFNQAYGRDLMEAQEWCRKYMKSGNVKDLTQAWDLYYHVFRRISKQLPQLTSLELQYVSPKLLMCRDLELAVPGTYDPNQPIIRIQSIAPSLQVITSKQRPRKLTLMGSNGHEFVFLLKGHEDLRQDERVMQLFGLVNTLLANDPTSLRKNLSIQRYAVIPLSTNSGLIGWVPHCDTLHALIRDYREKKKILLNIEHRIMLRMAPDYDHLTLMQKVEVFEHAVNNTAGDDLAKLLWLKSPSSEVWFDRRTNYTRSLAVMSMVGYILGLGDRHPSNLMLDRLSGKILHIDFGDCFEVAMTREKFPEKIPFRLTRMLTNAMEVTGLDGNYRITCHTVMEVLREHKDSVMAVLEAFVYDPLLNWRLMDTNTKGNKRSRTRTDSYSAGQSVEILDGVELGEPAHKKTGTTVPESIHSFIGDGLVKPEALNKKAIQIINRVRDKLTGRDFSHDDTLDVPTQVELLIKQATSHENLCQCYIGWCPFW

Turning to `CNC(=O)c1ccc(NC(=O)Nc2ccc(-c3nc(N4CCOCC4)nc(N4CCOCC4)n3)cc2)cc1` [Example 70, 4-(3-(4-(4,6-dimorpholino-1,3,5-triazin-2-yl)phenyl)ureido)-N-methylbenzamide], the IC50 on Human mTOR (FLAG-TOR) stood at 0.7 nM; in experiment [1] (read-out: IC50 PC3-mm2, MTS cell growth assay, three days after drug treatment) it was 24 nM.

Turning to `CN(C)C1CCN(C(=O)c2ccc(NC(=O)Nc3ccc(-c4nc(N5CCOCC5)nc(N5CCOCC5)n4)cc3)cc2)C1` (centres unmarked) [Example 167, 1-(4-{[3-(dimethylamino)pyrrolidin-1-yl]carbonyl}phenyl)-3-[4-(4,6-dimorpholin-4-yl-1,3,5-triazin-2-yl)phenyl]urea], the IC50 was 0.68 nM on Human mTOR (FLAG-TOR), 10 nM in experiment [1] (setting [2]) and 0.8 nM at PI3K-α.

Turning to `CC(C)c1nc(-c2ccc(NC(=O)Nc3ccc(C(=O)N4CCN(C)CC4)cc3)cc2)nc(N2CCOCC2)n1` [Example 304, 1-{4-[4-(1-methylethyl)-6-morpholin-4-yl-1,3,5-triazin-2-yl]phenyl}-3-{4-[(4-methylpiperazin-1-yl)carbonyl]phenyl}urea], the IC50 is 2.5 nM and 4.5 nM on Human mTOR (FLAG-TOR); 39.3 nM in experiment [1] (setting [3]); 39.3 nM in experiment [1] (setting [2]); 2 nM on PI3K-α; 1.1 nM on PI3K-α (listed as 486).

As for `CN(C)C1CCN(C(=O)c2ccc(NC(=O)Nc3ccc(-c4nc(-c5cccs5)nc(N5CCOCC5)n4)cc3)cc2)CC1` [Example 568, 1-(4-{[4-(dimethylamino)piperidin-1-yl]carbonyl}phenyl)-3-{4-[4-morpholin-4-yl-6-(2-thienyl)-1,3,5-triazin-2-yl]phenyl}urea], the IC50 came out at 10 nM on Human mTOR (FLAG-TOR), 107 nM in experiment [1] (setting [3]) and 3.5 nM at PI3K-α.

As for `CN(C)CCOc1ccc(NC(=O)Nc2ccc(-c3nc(NS(=O)(=O)c4ccccc4)nc(N4CCOCC4)n3)cc2)cc1` [Example 783, N-(4-{4-[({4-[2-(dimethylamino)ethoxy]phenyl}carbamoyl)amino]phenyl}-6-morpholin-4-yl-1,3,5-triazin-2-yl)benzenesulfonamide], the results for the IC50 on Human mTOR (FLAG-TOR), at PI3K-α and on PI3K-γ were 295 nM, 346 nM and 736 nM, respectively.

For the compound `COC(=O)c1ccc(NC(=O)Nc2ccc(-c3nc(NS(=O)(=O)c4ccccc4)nc(N4CCOCC4)n3)cc2)cc1` [Example 789, methyl 4-{[(4-{4-morpholin-4-yl-6-[(phenylsulfonyl)amino]-1,3,5-triazin-2-yl}phenyl)carbamoyl]amino}benzoate], the IC50 came out at 59 nM on Human mTOR (FLAG-TOR), 870 nM on PI3K-α and 1160 nM at PI3K-γ.

Regarding `O=C(Nc1ccc(C(=O)O)cc1)Nc1ccc(-c2nc(NS(=O)(=O)c3ccccc3)nc(N3CCOCC3)n2)cc1` [Example 790, 4-{[(4-{4-morpholin-4-yl-6-[(phenylsulfonyl)amino]-1,3,5-triazin-2-yl}phenyl)carbamoyl]amino}benzoic acid], the IC50 on Human mTOR (FLAG-TOR) was determined as 65 nM; on PI3K-α, 244 nM; at PI3K-γ, 593 nM.

With `Cc1cc(NC(=O)Nc2ccc(-c3nc(N4CCOCC4)nc(N4CC5CCC4CO5)n3)cc2)n(C)n1` (centres unmarked) [Example 808, 1-(1,3-dimethyl-1H-pyrazol-5-yl)-3-{4-[4-morpholin-4-yl-6-(2-oxa-5-azabicyclo[2.2.2]oct-5-yl)-1,3,5-triazin-2-yl]phenyl}urea], the IC50 came out at 260 nM at Human mTOR (FLAG-TOR), 381 nM on PI3K-α and 1260 nM at PI3K-γ.

`O=C(Nc1ccc(-c2nc(N3CCOCC3)nc(N3CC4CCC3CO4)n2)cc1)Nc1cc[nH]n1` (centres unmarked) [Example 809, 1-{4-[4-morpholin-4-yl-6-(2-oxa-5-azabicyclo[2.2.2]oct-5-yl)-1,3,5-triazin-2-yl]phenyl}-3-(1H-pyrazol-3-yl)urea]: the IC50 at Human mTOR (FLAG-TOR) amounted to 67 nM; at PI3K-α, 395 nM; on PI3K-γ it was 2190 nM.

For `O=C(Nc1ccncc1)Nc1ccc(-c2nc(N3CCOCC3)nc(N3C4COCC3[C@H](O)C4)n2)cc1` (stereo partly drawn) [Example 820, 1-(4-{4-[(6R)-6-hydroxy-3-oxa-8-azabicyclo[3.2.1]oct-8-yl]-6-morpholin-4-yl-1,3,5-triazin-2-yl}phenyl)-3-pyridin-4-ylurea], the values for the IC50 at Human mTOR (FLAG-TOR), on PI3K-α and on PI3K-γ were 0.515 nM, 6.1 nM and 67 nM, respectively.

Consider `O=C(Nc1ccncc1)Nc1ccc(-c2nc(N3CCOCC3)nc(N3C4COCC3[C@H](OCc3ccccc3)C4)n2)cc1` (stereo partly drawn) [Example 821, 1-(4-{4-[(6R)-6-(benzyloxy)-3-oxa-8-azabicyclo[3.2.1]oct-8-yl]-6-morpholin-4-yl-1,3,5-triazin-2-yl}phenyl)-3-pyridin-4-ylurea], for which the values for the IC50 at Human mTOR (FLAG-TOR), at PI3K-α and at PI3K-γ were 3.4 nM, 9.3 nM and 58.3 nM, respectively.

Consider `O=C(Nc1ccc(C(=O)N2CCS(=O)(=O)CC2)cc1)Nc1ccc(-c2nc(N3CCOCC3)nc(N3C4CCC3COC4)n2)cc1` [Example 822, 1-{4-[(1,1-dioxidothiomorpholin-4-yl)carbonyl]phenyl}-3-{4-[4-morpholin-4-yl-6-(3-oxa-8-azabicyclo[3.2.1]oct-8-yl)-1,3,5-triazin-2-yl]phenyl}urea], for which the IC50 is 0.335 nM on Human mTOR (FLAG-TOR), 3 nM at PI3K-α and 31.5 nM at PI3K-γ.

With `CN(C)[C@@H]1CCN(C(=O)c2ccc(NC(=O)Nc3ccc(-c4nc(N5CCOCC5)nc(N5C6CCC5COC6)n4)cc3)cc2)C1` [Example 825, 1-(4-{[(3R)-3-(dimethylamino)pyrrolidin-1-yl]carbonyl}phenyl)-3-{4-[4-morpholin-4-yl-6-(3-oxa-8-azabicyclo[3.2.1]oct-8-yl)-1,3,5-triazin-2-yl]phenyl}urea], the half-maximal inhibitory concentration (IC50) on Human mTOR (FLAG-TOR) came to 185 nM; on PI3K-α it was 2 nM; at PI3K-α (listed as 828), 2.05 nM; at PI3K-γ it was 13 nM.

Regarding `C[C@H]1COCCN1c1nc(-c2ccc(NC(=O)Nc3ccncc3)cc2)nc(N2C3CCC2COC3)n1` [Example 829, 1-(4-{4-[(3S)-3-methylmorpholin-4-yl]-6-(3-oxa-8-azabicyclo[3.2.1]oct-8-yl)-1,3,5-triazin-2-yl}phenyl)-3-pyridin-4-ylurea], the results for the IC50 on Human mTOR (FLAG-TOR), at PI3K-α and on PI3K-γ were 520 nM, 10.5 nM and 188 nM, respectively.

As for `C[C@H]1COCCN1c1nc(-c2ccc(NC(=O)Nc3ccc(C(=O)N(C)CCN(C)C)cc3)cc2)nc(N2C3CCC2COC3)n1` [Example 831, N-[2-(dimethylamino)ethyl]-N-methyl-4-{[(4-{4-[(3S)-3-methylmorpholin-4-yl]-6-(3-oxa-8-azabicyclo[3.2.1]oct-8-yl)-1,3,5-triazin-2-yl}phenyl)carbamoyl]amino}benzamide], the results for the IC50 at Human mTOR (FLAG-TOR), at PI3K-α and on PI3K-γ were 265 nM, 3.3 nM and 87.5 nM, respectively.

For `C[C@H]1COCCN1c1nc(-c2ccc(NC(=O)Nc3ccc(C(=O)O)cc3)cc2)nc(N2C3CCC2COC3)n1` [Example 832, 4-{[(4-{4-[(3S)-3-methylmorpholin-4-yl]-6-(3-oxa-8-azabicyclo[3.2.1]oct-8-yl)-1,3,5-triazin-2-yl}phenyl)carbamoyl]amino}benzoic acid], the results for the IC50 on Human mTOR (FLAG-TOR), at PI3K-α and at PI3K-γ were 165 nM, 61.5 nM and 342 nM, respectively.

With `C[C@H]1COCCN1c1nc(-c2ccc(NC(=O)Nc3ccc(C(=O)N4CC[C@@H](N(C)C)C4)cc3)cc2)nc(N2C3CCC2COC3)n1` [Example 833, 1-(4-{[(3R)-3-(dimethylamino)pyrrolidin-1-yl]carbonyl}phenyl)-3-(4-{4-[(3S)-3-methylmorpholin-4-yl]-6-(3-oxa-8-azabicyclo[3.2.1]oct-8-yl)-1,3,5-triazin-2-yl}phenyl)urea], the IC50 on Human mTOR (FLAG-TOR) stood at 185 nM; on PI3K-α, 5.6 nM; at PI3K-γ, 81.5 nM.

Turning to `C[C@H]1COCCN1c1nc(-c2ccc(NC(=O)Nc3ccc(C(=O)N4CC[C@H](N(C)C)C4)cc3)cc2)nc(N2C3CCC2COC3)n1` [Example 834, 1-(4-{[(3S)-3-(dimethylamino)pyrrolidin-1-yl]carbonyl}phenyl)-3-(4-{4-[(3S)-3-methylmorpholin-4-yl]-6-(3-oxa-8-azabicyclo[3.2.1]oct-8-yl)-1,3,5-triazin-2-yl}phenyl)urea], the IC50 is 680 nM on Human mTOR (FLAG-TOR), 4.8 nM on PI3K-α and 86.5 nM at PI3K-γ.

Regarding `CCN1CCN(C(=O)c2ccc(NC(=O)Nc3ccc(-c4nc(N5C6CCC5COC6)nc(N5CCOC[C@@H]5C)n4)cc3)cc2)CC1` [Example 836, 1-{4-[(4-ethylpiperazin-1-yl)carbonyl]phenyl}-3-(4-{4-[(3S)-3-methylmorpholin-4-yl]-6-(3-oxa-8-azabicyclo[3.2.1]oct-8-yl)-1,3,5-triazin-2-yl}phenyl)urea], the IC50 is 665 nM at Human mTOR (FLAG-TOR), 5.1 nM at PI3K-α and 41 nM on PI3K-γ.

Take `CN1CCN(C(=O)c2ccc(NC(=O)Nc3ccc(-c4nc(N5CCOCC5)nc(N5C6CCC5COC6)n4)cc3)cc2)CC1(C)C` [Example 837, 1-{4-[4-(morpholin-4-yl)-6-(3-oxa-8-azabicyclo[3.2.1]oct-8-yl)-1,3,5-triazin-2-yl]phenyl}-3-{4-[(3,3,4-trimethylpiperazin-1-yl)carbonyl]phenyl}urea]: the IC50 was 515 nM on Human mTOR (FLAG-TOR), 3.7 nM on PI3K-α and 19.5 nM at PI3K-γ.

On to “N-[2-(dimethylamino)ethyl]-N-methyl-4-[({4-[4-morpholin-4-yl-6-(tetrahydro-2H-pyran-4-yl)-1,3,5-triazin-2-yl]phenyl}carbamoyl)amino]benzamide [Example 524]”, for which the IC50 at Human mTOR (FLAG-TOR) was found to be 0.26 nM; on PI3K-α, 0.8 nM; at PI3K-γ, 10 nM.

The values above are taken from US20090304692A1, “TRIAZINE COMPOUNDS AS PI3 KINASE AND MTOR INHIBITORS” (Wyeth, priority 2008, published 2009).
